The inhibition is the drop in the measured response relative to a control, in per cent.

This is an account of results in patent publication US9481676B2, “Azepino[4,5-B]indoles and methods of use” (Medivation Technologies, Inc., priority 2008, dated 2016).

In assay [1] the target is T1, human recombinant histamine H2 receptor (Homo sapiens, UniProt P25021).
T1 construct: expressed in transfected cells; host or cells: CHO-K1 cells
Put plainly: Histamine H2 radioligand binding ([125I]Aminopotentidine). The following applies: compound at 1 μM; read-out: Histamine Binding (1 μM) H2, percent inhibition of specific binding. The procedure, abridged: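 Membranes from CHO-K1 cells expressing recombinant human H2 receptor, in 50 mM phosphate buffer pH 7.4, incubated with 0.1 nM [125I]aminopotentidine for 120 min at 25 °C; nonspecific binding defined with 3 μM tiotidine.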

Assay [2] has as its target T2, human recombinant adrenergic α2A receptor (Homo sapiens, UniProt P08913).
T2 construct: expressed in transfected cells; host or cells: insect Sf9 cells
T2 sequence (P08913 1-465): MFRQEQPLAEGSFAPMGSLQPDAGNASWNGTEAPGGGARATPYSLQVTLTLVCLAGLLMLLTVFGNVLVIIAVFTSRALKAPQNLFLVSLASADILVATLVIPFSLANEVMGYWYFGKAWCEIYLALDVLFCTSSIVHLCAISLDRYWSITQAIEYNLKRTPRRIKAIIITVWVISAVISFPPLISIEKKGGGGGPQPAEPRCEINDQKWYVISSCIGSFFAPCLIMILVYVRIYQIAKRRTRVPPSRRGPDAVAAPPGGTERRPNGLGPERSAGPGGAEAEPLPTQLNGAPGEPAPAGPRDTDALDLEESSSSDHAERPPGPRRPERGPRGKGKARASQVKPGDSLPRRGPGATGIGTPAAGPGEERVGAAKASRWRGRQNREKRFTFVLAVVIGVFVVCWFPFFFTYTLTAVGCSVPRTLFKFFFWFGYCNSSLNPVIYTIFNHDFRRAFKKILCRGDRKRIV
Put plainly: Adrenergic alpha2A radioligand binding ([3H]MK-912). The following applies: compound at 1 μM; read-out: Adrenergic (1 μM) α2A, percent inhibition of specific binding. The method, boiled down:
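Membranes of Sf9 cells expressing human recombinant α2A receptor were incubated with compound and 1 nM [3H]MK-912 for 60 min at 25 °C in 50 mM Tris-HCl pH 7.4, 12.5 mM MgCl2, 2 mM EDTA. Nonspecific binding: 10 μM WB-4101.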

Assay [3] addresses T3, human recombinant dopamine D2L receptor (Homo sapiens, UniProt P14416).
T3 construct: expressed in transfected cells; host or cells: CHO cells
Put plainly: Dopamine D2L radioligand binding ([3H]Spiperone). The note with it: compound at 1 μM; read-out: Dopamine (1 μM) D2L, percent inhibition of specific binding. The procedure, abridged: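 Binding measured by filtration and counting, reported as % inhibition of specific [3H]spiperone binding (0.16 nM tracer; 10 μM haloperidol for nonspecific). Compounds tested at ≤1 μM in 1% DMSO for 120 min at 25° C against CHO-expressed human D2L in pH 7.4 Tris-HCl buffer.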

Assay [4] deals with T4, human recombinant serotonin (5-Hydroxytryptamine) 5-HT2A receptor (Homo sapiens, UniProt P28223).
T4 construct: expressed in transfected cells; host or cells: CHO-K1 cells
Put plainly: Serotonin 5-HT2A radioligand binding ([3H]Ketanserin). The note with it: compound at 1 μM; read-out: Serotonin (1 μM) 5-HT2A, percent inhibition of specific binding. The procedure, abridged:
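Percent inhibition of specific [3H]ketanserin (0.5 nM) binding, filtration read-out, with compounds at ≤1 μM (1% DMSO vehicle). Receptor source: recombinant human 5-HT2A in CHO-K1 cells, 50 mM Tris-HCl pH 7.4, 60 min, 25 °C; 1 μM mianserin gives nonspecific binding.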

Each structure is given as a SMILES string.

T1 sequence (P25021 whole entry): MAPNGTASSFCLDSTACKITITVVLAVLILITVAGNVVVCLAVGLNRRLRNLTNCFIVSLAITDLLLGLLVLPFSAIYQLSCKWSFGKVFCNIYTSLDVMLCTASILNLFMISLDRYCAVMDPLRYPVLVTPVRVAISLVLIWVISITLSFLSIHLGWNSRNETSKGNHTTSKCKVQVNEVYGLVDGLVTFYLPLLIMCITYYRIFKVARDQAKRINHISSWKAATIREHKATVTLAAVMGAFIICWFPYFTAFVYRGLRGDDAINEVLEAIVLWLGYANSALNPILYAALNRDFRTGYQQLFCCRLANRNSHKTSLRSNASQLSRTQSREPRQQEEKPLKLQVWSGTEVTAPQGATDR
T4 sequence (P28223 whole entry): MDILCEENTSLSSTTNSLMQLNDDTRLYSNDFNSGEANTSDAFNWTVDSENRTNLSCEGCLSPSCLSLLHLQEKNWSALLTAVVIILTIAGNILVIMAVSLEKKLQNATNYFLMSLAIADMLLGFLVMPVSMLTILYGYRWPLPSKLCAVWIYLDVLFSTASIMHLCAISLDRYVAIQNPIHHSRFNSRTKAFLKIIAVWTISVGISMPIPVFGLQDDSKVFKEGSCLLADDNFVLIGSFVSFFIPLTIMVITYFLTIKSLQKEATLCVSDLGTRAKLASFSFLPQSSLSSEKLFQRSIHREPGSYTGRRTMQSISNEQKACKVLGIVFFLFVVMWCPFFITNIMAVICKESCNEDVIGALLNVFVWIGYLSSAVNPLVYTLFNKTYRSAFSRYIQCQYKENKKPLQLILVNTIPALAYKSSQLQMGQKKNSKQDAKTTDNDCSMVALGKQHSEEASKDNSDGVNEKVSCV
T3 sequence (P14416 whole entry): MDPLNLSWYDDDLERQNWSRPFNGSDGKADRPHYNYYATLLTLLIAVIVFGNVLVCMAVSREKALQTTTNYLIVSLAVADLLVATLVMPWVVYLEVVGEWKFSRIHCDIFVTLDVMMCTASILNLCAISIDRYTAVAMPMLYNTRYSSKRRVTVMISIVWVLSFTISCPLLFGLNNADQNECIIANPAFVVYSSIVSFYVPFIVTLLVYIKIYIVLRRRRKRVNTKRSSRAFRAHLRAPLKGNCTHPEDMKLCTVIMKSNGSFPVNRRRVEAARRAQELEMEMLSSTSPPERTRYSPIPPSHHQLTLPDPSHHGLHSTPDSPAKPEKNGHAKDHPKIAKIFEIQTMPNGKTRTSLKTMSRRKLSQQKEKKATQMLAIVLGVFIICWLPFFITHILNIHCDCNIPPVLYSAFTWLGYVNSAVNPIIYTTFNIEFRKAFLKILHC

As for `CN1CCc2c(n(CCc3ccncc3)c3ccc(Cl)cc23)CC1` [Compound No. 5, 9-chloro-1,2,3,4,5,6-hexahydro-3-methyl-6-(2-(pyridin-4-yl)ethyl)azepino[4,5-b]indole], the inhibition at 1 µM stood at 62% in assay [1], 97% in assay [2], 34% in assay [3] and 96% in assay [4].

For `Cc1ccc2c(c1)c1c(n2CC(O)c2ccc(C)nc2)CCN(C)CC1` (centres unmarked) [Compound No. 23, 2-(2,3,4,5-tetrahydro-3,9-dimethylazepino[4,5-b]indol-6(1H)-yl)-1-(6-methylpyridin-3-yl)ethanol], the inhibition at 1 µM in assay [1] was -3%; in assay [2], 42%; in assay [3], 4%; in assay [4], 67%.

Regarding `CN1CCc2c(n(CC(=O)Nc3ccc(F)cc3)c3ccc(Cl)cc23)CC1` [Compound No. 37, 2-(9-chloro-2,3,4,5-tetrahydro-3-methylazepino[4,5-b]indol-6(1H)-yl)-N-(4-fluorophenyl) acetamide], the inhibition at 1 µM is 4% in assay [1], 68% in assay [2], 9% in assay [3] and 91% in assay [4].

As for `Cc1ccc2c(c1)c1c(n2CC(=O)OC2CCCC2)CCN(C)CC1` [Compound No. 55, Cyclopentyl-2-(2,3,4,5-tetrahydro-3,9-dimethylazepino[4,5-b]indol-6(1H)-yl)acetate], the inhibition at 1 µM in assay [1] is -3%; in assay [2], 12%; in assay [3] it was 6%; in assay [4] it was -2%.

On to `CN1CCc2c(n(CC(O)c3ccc(F)cc3)c3ccc(Cl)cc23)CC1` (centres unmarked) [Compound No. 51, 2-(9-chloro-2,3,4,5-tetrahydro-3-methylazepino[4,5-b]indol-6(1H)-yl)-1-(4-fluorophenyl) ethanol], for which the inhibition at 1 µM in assay [1] turned out to be 70%; in assay [2], 98%; in assay [3], 30%; in assay [4], 97%.

For `Cc1ccc2c(c1)c1c(n2/C=C/c2ccccc2)CCN(C)CC1` [Compound No. 229, (E)-3,9-dimethyl-6-styryl-1,2,3,4,5,6-hexahydroazepino[4,5-b]indole], the inhibition at 1 µM in assay [1] is 94%; in assay [2], 100%; in assay [3], 68%; in assay [4], 100%.

`CN1CCc2c(n(CC(O)c3ccc(Cl)cc3)c3ccc(Cl)cc23)CC1` (centres unmarked) [Compound No. 16, 2-(9-chloro-2,3,4,5-tetrahydro-3-methylazepino[4,5-b]indol-6(1H)-yl)-1-(4-chlorophenyl)ethanol]: the inhibition at 1 µM in assay [1] came out at 92%; in assay [2], 105%; in assay [3] it was 37%; in assay [4], 101%.

As to `CN1CCc2c(n(/C=C/c3ccc(F)cc3)c3ccc(Cl)cc23)CC1` [Compound No. 234, (E)-9-chloro-6-(4-fluorostyryl)-3-methyl-1,2,3,4,5,6-hexahydroazepino[4,5-b]indole], the inhibition at 1 µM in assay [1] was 92%; in assay [2], 98%; in assay [3], 71%; in assay [4] it was 101%.

Consider `Cc1ccc2c(c1)c1c(n2CC(O)c2ccc(Cl)cc2)CCN(C)CC1` (centres unmarked) [Compound No. 17, 1-(4-chlorophenyl)-2-(2,3,4,5-tetrahydro-3,9-dimethylazepino[4,5-b]indol-6(1H)-yl)ethanol], for which the inhibition at 1 µM was 84% in assay [1], 105% in assay [2], 34% in assay [3] and 102% in assay [4].

For the molecule `Cc1ccc2c(c1)c1c(n2/C=C/c2ccc(F)cc2)CCN(C)CC1` [Compound No. 39, 6-(4-fluorostyryl)-1,2,3,4,5,6-hexahydro-3,9-dimethylazepino[4,5-b]indole], the inhibition at 1 µM stood at 91% in assay [1], 98% in assay [2], 66% in assay [3] and 98% in assay [4].

Regarding `C/C(=C\n1c2c(c3cc(C)ccc31)CCN(C)CC2)c1ccc(Cl)cc1` [Compound No. 33, 6-((E)-2-(4-chlorophenyl)prop-1-enyl)-1,2,3,4,5,6-hexahydro-3,9-dimethylazepino[4,5-b]indole], the inhibition at 1 µM was found to be 101% in assay [1], 97% in assay [2], 35% in assay [3] and 100% in assay [4].

In the case of `Cc1ccc(CCn2c3c(c4cc(Cl)ccc42)CCN(C)CC3)cc1` [Compound No. 46, 9-chloro-3-methyl-6-(4-methylphenethyl)-1,2,3,4,5,6-hexahydroazepino[4,5-b]indole], the inhibition at 1 µM amounted to 89% in assay [1], 100% in assay [2], 79% in assay [3] and 100% in assay [4].

With `Cc1ccc2c(c1)c1c(n2CC(=O)N2CCCCC2)CCN(C)CC1` [Compound No. 32, 2-(2,3,4,5-tetrahydro-3,9-dimethylazepino[4,5-b]indol-6(1H)-yl)-1-(piperidin-1-yl)ethanone], the inhibition at 1 µM is -5% in assay [1], 39% in assay [2], -1% in assay [3] and 60% in assay [4].

Turning to `CN1CCc2c(n(CC(=O)N3CCCC3)c3ccc(Cl)cc23)CC1` [Compound No. 53, 2-(9-chloro-2,3,4,5-tetrahydro-3-methylazepino[4,5-b]indol-6(1H)-yl)-1-(pyrrolidin-1-yl)ethanone], the inhibition at 1 µM was found to be 3% in assay [1], 1% in assay [2], 2% in assay [3] and 41% in assay [4].
